ChEMBL document CHEMBL1201862, “PubChem BioAssay data set” (2004)
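Where inhibition never reached the appropriate level, the endpoint shown equals the highest concentration tested. Otherwise, values were interpolated linearly from a five-concentration, 48-hour dose response in 96-well plates. At the GI50, growth is halved.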 Calls of active or inactive are those of the source. No stated cut-off is given here; in the data, active = GI50 up to about 1.1 µM and inactive = higher.

Tests used:
Test in all cases: inhibition of tumour cell growth, NCI panel, 48 h
IGROV-1 = system: IGROV-1
HOP-62 = system: HOP-62
SK-OV-3 = system: SK-OV-3
M19-MEL = system: M19-MEL
EKVX = system: EKVX
RPMI-8226 = system: RPMI-8226
SK-MEL-28 = system: SK-MEL-28
NCI-H460 = system: NCI-H460
UO-31 = system: UO-31
CAKI-1 = system: CAKI-1
SNB-78 = system: SNB-78
UACC-62 = system: UACC-62
HCC 2998 = system: HCC 2998
SK-MEL-2 = system: SK-MEL-2
LOX IMVI = system: LOX IMVI
MOLT-4 = system: MOLT-4
SW-620 = system: SW-620
A549 = system: A549
M14 = system: M14
HCT-15 = system: HCT-15
ACHN = system: ACHN
XF498 = system: XF498
RXF 393 = system: RXF 393
OVCAR-3 = system: OVCAR-3
SK-MEL-5 = system: SK-MEL-5
LXFL 529 = system: LXFL 529
DLD-1 = system: DLD-1
DMS-114 = system: DMS-114
SNB-19 = system: SNB-19
CCRF-CEM = system: CCRF-CEM
OVCAR-4 = system: OVCAR-4
K562 = system: K562
U-251 = system: U-251
TK-10 = system: TK-10
HCT-116 = system: HCT-116
Malme-3M = system: Malme-3M
HOP-92 = system: HOP-92
KM12 = system: KM12
NCI-H522 = system: NCI-H522
OVCAR-8 = system: OVCAR-8
A498 = system: A498
UACC-257 = system: UACC-257
SN12C = system: SN12C
OVCAR-5 = system: OVCAR-5
HL-60 = system: HL-60
SF-268 = system: SF-268
HT-29 = system: HT-29
786-0 = system: 786-0
SF-295 = system: SF-295
COLO 205 = system: COLO 205
SF-539 = system: SF-539
KM-20L2 = system: KM-20L2
NCI-H23 = system: NCI-H23
DMS-273 = system: DMS-273
NCI-H226 = system: NCI-H226
SR = system: SR
SNB-75 = system: SNB-75
NCI/ADR-RES = system: NCI/ADR-RES
MCF7 = system: MCF7

Measured: GI50

CC1=NN(C(=O)c2ccc(Cl)cc2)C(=O)/C1=C/c1ccccc1O
inactive: IGROV-1 > 100 µM | HOP-62 > 100 µM | SK-OV-3 > 100 µM | M19-MEL > 100 µM | EKVX > 100 µM | RPMI-8226 > 100 µM | SK-MEL-28 > 100 µM | NCI-H460 > 100 µM | UO-31 > 100 µM | CAKI-1 > 100 µM | SNB-78 > 100 µM | UACC-62 > 100 µM | HCC 2998 > 100 µM | SK-MEL-2 > 100 µM | LOX IMVI > 100 µM | MOLT-4 > 100 µM | SW-620 > 100 µM | A549 > 100 µM | M14 > 100 µM | ACHN > 100 µM | XF498 > 100 µM | RXF 393 > 100 µM | OVCAR-3 > 100 µM | SK-MEL-5 > 100 µM | LXFL 529 > 100 µM | DLD-1 > 100 µM | DMS-114 > 100 µM | SNB-19 > 100 µM | CCRF-CEM > 100 µM | OVCAR-4 > 100 µM | K562 > 100 µM | U-251 > 100 µM | TK-10 > 100 µM | HCT-116 > 100 µM | Malme-3M > 100 µM | HOP-92 > 100 µM | KM12 > 100 µM | NCI-H522 > 100 µM | OVCAR-8 > 100 µM | A498 > 100 µM | UACC-257 > 100 µM | SN12C > 100 µM | OVCAR-5 > 100 µM | HL-60 > 100 µM | SF-268 > 100 µM | HT-29 > 100 µM | 786-0 > 100 µM | SF-295 > 100 µM | COLO 205 > 100 µM | SF-539 > 100 µM | KM-20L2 > 100 µM | NCI-H23 > 100 µM
> 100 µM: HCT-15

O=C(O)CSc1nnc(COc2ccccc2)n1-c1ccccc1
> 100 µM: HCT-15
inactive: IGROV-1 > 100 µM | HOP-62 > 100 µM | SK-OV-3 > 100 µM | M19-MEL > 100 µM | RPMI-8226 > 100 µM | SK-MEL-28 > 100 µM | NCI-H460 > 100 µM | UO-31 > 100 µM | SNB-78 > 100 µM | DMS-273 > 100 µM | HCC 2998 > 100 µM | SK-MEL-2 > 100 µM | LOX IMVI > 100 µM | MOLT-4 > 100 µM | NCI-H226 > 100 µM | SR > 100 µM | A549 > 100 µM | M14 > 100 µM | ACHN > 100 µM | OVCAR-3 > 100 µM | SK-MEL-5 > 100 µM | LXFL 529 > 100 µM | DLD-1 > 100 µM | DMS-114 > 100 µM | CCRF-CEM > 100 µM | OVCAR-4 > 100 µM | U-251 > 100 µM | SNB-75 > 100 µM | TK-10 > 100 µM | HCT-116 > 100 µM | Malme-3M > 100 µM | HOP-92 > 100 µM | KM12 > 100 µM | NCI-H522 > 100 µM | OVCAR-8 > 100 µM | A498 > 100 µM | UACC-257 > 100 µM | SN12C > 100 µM | OVCAR-5 > 100 µM | HL-60 > 100 µM | SF-268 > 100 µM | HT-29 > 100 µM | 786-0 > 100 µM | SF-295 > 100 µM | COLO 205 > 100 µM | SF-539 > 100 µM | KM-20L2 > 100 µM | NCI-H23 > 100 µM

CCCO/N=[N+](\[O-])N(CC)CC
inactive: IGROV-1 > 100 µM | HOP-62 > 100 µM | SK-OV-3 > 100 µM | EKVX > 100 µM | SK-MEL-28 > 100 µM | NCI-H460 > 100 µM | UO-31 > 100 µM | SNB-78 > 100 µM | DMS-273 > 100 µM | UACC-62 > 100 µM | HCC 2998 > 100 µM | SK-MEL-2 > 100 µM | LOX IMVI > 100 µM | MOLT-4 > 100 µM | NCI-H226 > 100 µM | SR > 100 µM | SW-620 > 100 µM | A549 > 100 µM | M14 > 100 µM | ACHN > 100 µM | XF498 > 100 µM | RXF 393 > 100 µM | OVCAR-3 > 100 µM | SK-MEL-5 > 100 µM | LXFL 529 > 100 µM | SNB-19 > 100 µM | CCRF-CEM > 100 µM | K562 > 100 µM | U-251 > 100 µM | TK-10 > 100 µM | HCT-116 > 100 µM | HOP-92 > 100 µM | KM12 > 100 µM | NCI-H522 > 100 µM | OVCAR-8 > 100 µM | A498 > 100 µM | UACC-257 > 100 µM | SN12C > 100 µM | OVCAR-5 > 100 µM | HL-60 > 100 µM | SF-268 > 100 µM | HT-29 > 100 µM | SF-295 > 100 µM | SF-539 > 100 µM | KM-20L2 > 100 µM | NCI-H23 > 100 µM
> 100 µM: HCT-15

CC1OC(O[C@@H]2C=C3CC[C@@H]4[C@H](CC[C@]5(C)[C@@H](c6ccc(=O)oc6)CC[C@]45O)[C@@]3(C)CC2)C(O)C(OC2OC(CO)C(O)C(O)C2O)C1O (stereo not given in full)
active: IGROV-1 0.025 µM | M19-MEL 0.025 µM | EKVX 0.025 µM | RPMI-8226 0.025 µM | SK-MEL-28 0.025 µM | UO-31 0.025 µM | SNB-78 0.025 µM | UACC-62 0.025 µM | HCC 2998 0.025 µM | SK-MEL-2 0.025 µM | LOX IMVI 0.025 µM | NCI-H226 0.0255 µM | SW-620 0.025 µM | XF498 0.025 µM | DLD-1 0.025 µM | SNB-19 0.025 µM | CCRF-CEM 0.025 µM | NCI/ADR-RES 0.025 µM | K562 0.025 µM | U-251 0.025 µM | SNB-75 0.025 µM | HCT-116 0.025 µM | HOP-92 0.025 µM | KM12 0.025 µM | MCF7 0.025 µM | OVCAR-8 0.025 µM | A498 0.025 µM | UACC-257 0.025 µM | SN12C 0.025 µM | OVCAR-5 0.0275 µM | HL-60 0.025 µM | HT-29 0.0281 µM | SF-295 0.025 µM | COLO 205 0.025 µM | KM-20L2 0.025 µM
0.025 µM: HCT-15
